Legend:
[1] = system: mouse splenic T cells; assay: targeted transfection of T cells in vivo with CD5-targeted tLNP; conditions: C57Bl/6 mice, 10 μg via tail vein, spleen at 24 hours
Description: To assess the performance of tLNP described in Example 35 they were used to transfect mouse T cells by injecting the tLNP into live mice and evaluated for their ability to generate murine T cells that express the mCherry reporter gene in vivo. All tLNP test articles were thawed at room temperature for 30 minutes and then diluted 1:2 with sterile water for injection to achieve a final dose concentration of 100 μg/mL. 100 μL (10 μg) of each test article was then injected via the tail vein into 8-week-old female C57Bl/6 mice. All treated mice were then sacrificed at 24 hours post-treatment and their spleens collected. Each spleen was then dissociated to single cell suspension and stained with antibodies to identify T cells, B cells, monocytes and non-hematopoietic cells. Stained samples were then analyzed by flow cytometry for expression of mCherry in immune cell subsets, and non-hematopoietic cells. Data analysis was performed using FlowJo (Version 10.8.1) and GraphPad Prism (9.4.1.).

[2] = physical-chemical properties of CD5-targeted tLNP encapsulating mCherry mRNA; type: physicochemical; conditions: for Hydrodynamic diameter: anti-CD5 tLNP: ionizable lipid/DSPC/cholesterol/DMG-PEG 2000/DSPE-PEG2000-Maleimide 50:10:38.5:1.4:0.1
Excerpt: CleanCap® mCherry 5-methoxyuridine (5moU) mRNA (L-7203) was purchased from TriLink. mRNA was encapsulated in LNP using a self-assembly process in which an aqueous solution of mRNA at pH=3.5 is rapidly mixed with a solution of lipids dissolved in ethanol, then followed by stepwise phosphate and Tris buffer dilution and TFF purification. LNP composition in this study was: ionizable cationic lipid/distearoylphosphatidylcholine/cholesterol/DMG-PEG 2000/distearoylphosphatidyl ethanolamine(DSPE)-PEG2000-Maleimide (50:10:38.5:1.4:0.1 mol/mol) and were encapsulated at an N/P ratio (the ratio of positively-chargeable […] amine (N=nitrogen) groups to negatively-charged nucleic acid phosphate (P) groups) at 6. The hydrodynamic diameter of the nanoparticles was measured by dynamic light scattering using a Zetasizer Nano ZS (Malvern Instruments Ltd., Malvern, UK) instrument.
Next, an anti-CD5 mAb was conjugated to the above LNP to generate tLNP. Purified rat anti-mouse CD5 antibody, clone 53-7.3 (BioLegend), was coupled to LNP via N-succinimidyl S-acetylthioacetate (SATA)-maleimide conjugation chemistry. Briefly, LNPs with DSPE-PEG(2000)-maleimide incorporated were formulated and stored at 4° C. on the day of conjugation. The antibody was modified with SATA (Sigma-Aldrich) to introduce sulfhydryl groups at accessible lysine residues allowing conjugation to maleimide. SATA was deprotected using 0.5 M hydroxylamine followed by removal of the unreacted components by G-25 Sephadex Quick Spin Protein columns (Roche Applied Science, Indianapolis, IN). The reactive sulfhydryl group on the antibody was then conjugated to maleimide moieties on the LNPs using thioether conjugation chemistry. Purification was performed using Sepharose CL-4B gel filtration columns (Sigma-Aldrich). tLNPs (LNPs conjugated with a targeting antibody) were frozen at −80° C. Others have conjugated antibody to free functionalized PEG-lipid and then incorporated the conjugated lipid into pre-formed LNP.
mRNA content was determined using a Quant-iT™ RiboGreen RNA assay kit (Invitrogen™). Encapsulation efficiency was calculated by determining the unencapsulated mRNA content by measuring the fluorescence intensity (Fi) upon the addition of RiboGreen reagent to the LNP and comparing this value to the total fluorescence intensity (Ft) of the RNA content that is obtained upon lysis of the LNPs by 1% Triton X-100, where % encapsulation=(Ft−Fi)/Ft x 100).
The particle size (hydrodynamic diameter) and polydispersity index of the targeted lipid nanoparticles were determined using dynamic light scattering (DLS) on a Malvern Zetasizer Nano ZS (Malvern Instruments, Worcestershire, UK). Size measurement was carried out in pH 7.4 Tris buffer at 25° C. in relevant disposable capillary cells. A non-invasive back scatter system (NIBS) with a scattering angle of 173° was used for size measurements.

[3] = system: HEK293F cells; assay: transfection of HEK293F cells with mCherry mRNA LNP; type: cell-based; conditions: highest dose tested (2 μg RNA per well), 24 hours
Description: The ability of the LNP formed in the preceding Example to transfect HEK293F cells, a human embryonic kidney cell-derived cell line, with the mCherry mRNA was assessed. Viral Production Cells (Gibco Catalog number: A35347), a derivative of the HEK 293F cell line adapted to a chemically-defined, serum-free and protein-free medium (LV-MAX™ Production Medium; Gibco Catalog number: A3583401) were grown in suspension, sedimented, resuspended at about 1×10^6 cells/mL, and 200 μL distributed to the wells of a 96-well U-bottom plate. Frozen LNP were thawed and diluted to 100 μg mRNA/mL with sterile water for injection. An appropriate volume of LNP was added to provide 0, 0.3, 0.6, or 2 μg RNA per well in duplicate and mixed by re-pipetting. The cells were then incubated for 1 hour at 37° C. in a CO2 incubator, washed three times with phosphate buffered saline, resuspended in 400 μL of medium in a deep-well 96-well plate, and incubated at 37° C. in a CO2 incubator on an orbital shaker at 900 RPM.
Twenty-four hours after addition of the LNP to the cells they were stained with Aqua Live/Dead (Thermo: catalog L34965) to assess cell viability. Transfection rate and expression level in the transfected cells was assessed by flow cytometry based on mCherry fluorescence.

| Compound | level of mCherry expression (MFI) in vivo [1] | transfection rate of splenic T cells in vivo [1] | Hydrodynamic diameter ([2]; DLS) | transfection rate [3] | PDI (polydispersity index) ([2]; anti-CD5 tLNP, DLS) | Encapsulation Efficiency ([2]; anti-CD5 tLNP, RiboGreen assay) |
| --- | --- | --- | --- | --- | --- | --- |
| CCCCCCCCC(=O)OCC(COC(=O)CCCCCCCC)CC(=O)OCCN(CCOC(=O)CC(COC(=O)CCCCCCCC)COC(=O)CCCCCCCC)C(=O)OCCN(C)C [Compound A-11] | distinctly greater than that achieved with the other tLNP | around 7% | 93 nm | ~50% | – | – |
| CCCCCCCCCC(=O)OCC(COC(=O)CCCCCCCCC)CC(=O)OCCN(CCOC(=O)CC(COC(=O)CCCCCCCCC)COC(=O)CCCCCCCCC)C(=O)NCCCN(C)C [Compound A-2] | – | – | 105 nm | – | 0.20 | 99% |
